Data as given in US6737383B1, “Herbicidal oxadiazolidines” (priority 1999, dated 2004).

How the values were obtained:
[1] = tested on: bedstraw; test: Test B pre/postemergence bedstraw; assay type: in vivo, Galium aparine
How it was run: (§1)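 Test chemicals in a non-phytotoxic solvent mixture with surfactant were sprayed preemergence onto planted seeds and postemergence onto plants 2 to 18 cm tall (1- to 4-leaf stage). After twelve to sixteen days in a greenhouse, injury was visually rated against untreated controls from 0 (no effect) to 10 (complete control).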

[2] = tested on: corn; test: Test B pre/postemergence corn; assay type: in vivo, Zea mays
How it was run: as §1

[3] = tested on: wild oat; test: Test B pre/postemergence wild oat; assay type: in vivo, Avena fatua
How it was run: as §1

[4] = tested on: morningglory; test: Test B pre/postemergence morningglory; assay type: in vivo, Ipomoea hederacea
How it was run: as §1

[5] = tested on: rice; test: Test B flood test rice; assay type: in vivo, Oryza sativa
How it was run: (§2)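 Read-out is a visual response score from 0 (no effect) to 10 (complete control), assigned by comparison with untreated controls. Treatment was applied at the 2-leaf stage, and plants stayed in the greenhouse for twelve to sixteen days before scoring.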

[6] = tested on: duck salad; test: Test B flood test duck salad; assay type: in vivo, Heteranthera limosa
How it was run: as §2

[7] = tested on: blackgrass; test: Test B pre/postemergence blackgrass; assay type: in vivo, Alopecurus myosuroides
How it was run: as §1

[8] = tested on: rape; test: Test B pre/postemergence rape; assay type: in vivo, Brassica napus
How it was run: as §1

[9] = tested on: pigweed; test: Test B pre/postemergence pigweed; assay type: in vivo, Amaranthus retroflexus
How it was run: as §1

[10] = tested on: purple nutsedge; test: Test B pre/postemergence purple nutsedge; assay type: in vivo, Cyperus rotundus
How it was run: as §1

[11] = tested on: wheat; test: Test B pre/postemergence wheat; assay type: in vivo, Triticum aestivum
How it was run: as §1

[12] = tested on: soybean; test: Test B pre/postemergence soybean; assay type: in vivo, Glycine max
How it was run: as §1

[13] = tested on: velvetleaf; test: Test B pre/postemergence velvetleaf; assay type: in vivo, Abutilon theophrasti
How it was run: as §1

[14] = tested on: surinam grass; test: Test B pre/postemergence surinam grass; assay type: in vivo, Brachiaria decumbens
How it was run: as §1

[15] = tested on: crabgrass; test: Test B pre/postemergence crabgrass; assay type: in vivo, Digitaria sanguinalis
How it was run: as §1

[16] = tested on: giant foxtail; test: Test B pre/postemergence giant foxtail; assay type: in vivo, Setaria faberii
How it was run: as §1

[17] = Preemergence, Rate 62 g/ha, scale of 0 to 10 where 0 is no effect and 10 is complete control
[18] = Preemergence, Rate 250 g/ha, scale of 0 to 10 where 0 is no effect and 10 is complete control
[19] = Preemergence, Rate 500 g/ha, scale of 0 to 10 where 0 is no effect and 10 is complete control
[20] = Rate 62 g/ha, Postemergence, scale of 0 to 10 where 0 is no effect and 10 is complete control
[21] = Rate 125 g/ha, Postemergence, scale of 0 to 10 where 0 is no effect and 10 is complete control
[22] = Rate 125 g/ha, Preemergence, scale of 0 to 10 where 0 is no effect and 10 is complete control
[23] = Rate 250 g/ha, Postemergence, scale of 0 to 10 where 0 is no effect and 10 is complete control
[24] = Rate 500 g/ha, Postemergence, scale 0 to 10, 0 no effect, 10 complete control
[25] = Rate 62 g/ha, headed Pre-emergence (flood test species), scale 0 to 10 (0 no effect, 10 complete control)
[26] = Rate 125 g/ha, Pre-emergence, flood test species, scale 0 to 10 where 0 is no effect and 10 is complete control
[27] = Rate 250 g/ha, Pre-emergence, flood-test species, scale 0 to 10, 0 is no effect, 10 is complete control
[28] = Rate 500 g/ha, Pre-emergence, flood test species, scale 0 to 10 (0 no effect, 10 complete control)

## CC(C)N(C(=O)n1oc(=O)n(-c2ccsc2)c1=O)c1ccc(F)cc1 [Compound 272]
[1]; [17]
  Bedstraw plant response rating: 0
[1]; [18]
  Bedstraw plant response rating: 0
[1]; [19]
  Plant response rating, Bedstraw: 3
[1]; [20]
  Bedstraw plant response rating: 0
[1]; [21]
  Bedstraw plant response rating: 0
[1]; [22]
  Bedstraw plant response rating: 0
[1]; [23]
  Plant response rating, Bedstraw: 0
[1]; [24]
  Bedstraw plant response rating: 4
[2]; [17]
  Corn plant response rating: 0
[2]; [18]
  Corn plant response rating: 0
[2]; [19]
  Plant response rating, Corn: 0
[2]; [20]
  Corn plant response rating: 0
[2]; [21]
  Corn plant response rating: 0
[2]; [22]
  Corn plant response rating: 0
[2]; [23]
  Plant response rating, Corn: 0
[2]; [24]
  Corn plant response rating: 0
[3]; [17]
  Wild oats plant response rating: 0
[3]; [18]
  Wild oats plant response rating: 0
[3]; [19]
  Plant response rating, Wild oats: 2
[3]; [21]
  Wild oats plant response rating: 0
[3]; [23]
  Plant response rating, Wild oats: 0
[3]; [24]
  Wild oats plant response rating: 0
[4]; [17]
  Morningglory plant response rating: 0
[4]; [18]
  Morningglory plant response rating: 0
[4]; [19]
  Plant response rating, Morningglory: 0
[4]; [21]
  Morningglory plant response rating: 1
[4]; [22]
  Morningglory plant response rating: 0
[4]; [23]
  Plant response rating, Morningglory: 1
[4]; [24]
  Morningglory plant response rating: 7
[5]; [25]
  Rice plant response rating: 0
[5]; [26]
  Rice plant response rating: 0
[5]; [27]
  Rice plant response rating: 0
[5]; [28]
  Rice plant response rating: 0
[6]; [25]
  Ducksalad plant response rating: 0
[6]; [26]
  Ducksalad plant response rating: 0
[6]; [27]
  Ducksalad plant response rating: 0
[6]; [28]
  Ducksalad plant response rating: 0
[7]; [17]
  Blackgrass plant response rating: 0
[7]; [18]
  Blackgrass plant response rating: 0
[7]; [19]
  Plant response rating, Blackgrass: 0
[7]; [20]
  Blackgrass plant response rating: 0
[7]; [21]
  Blackgrass plant response rating: 0
[7]; [22]
  Blackgrass plant response rating: 0
[7]; [23]
  Plant response rating, Blackgrass: 2
[7]; [24]
  Blackgrass plant response rating: 6
[8]; [17]
  Rape plant response rating: 0
[8]; [18]
  Rape plant response rating: 0
[8]; [19]
  Plant response rating, Rape: 0
[8]; [21]
  Rape plant response rating: 0
[8]; [22]
  Rape plant response rating: 0
[8]; [23]
  Plant response rating, Rape: 0
[8]; [24]
  Rape plant response rating: 0
[9]; [17]
  Redroot pigweed plant response rating: 0
[9]; [18]
  Redroot pigweed plant response rating: 0
[9]; [19]
  Plant response rating, Redroot pigweed: 3
[9]; [21]
  Redroot pigweed plant response rating: 0
[9]; [22]
  Redroot pigweed plant response rating: 0
[9]; [23]
  Plant response rating, Redroot pigweed: 2
[9]; [24]
  Redroot pigweed plant response rating: 4
[10]; [17]
  Nutsedge plant response rating: 0
[10]; [18]
  Nutsedge plant response rating: 0
[10]; [19]
  Plant response rating, Nutsedge: 0
[10]; [21]
  Nutsedge plant response rating: 0
[10]; [22]
  Nutsedge plant response rating: 0
[10]; [23]
  Plant response rating, Nutsedge: 0
[10]; [24]
  Nutsedge plant response rating: 0
[11]; [17]
  Wheat plant response rating: 0
[11]; [18]
  Wheat plant response rating: 0
[11]; [19]
  Plant response rating, Wheat: 0
[11]; [21]
  Wheat plant response rating: 0
[11]; [22]
  Wheat plant response rating: 0
[11]; [23]
  Plant response rating, Wheat: 0
[11]; [24]
  Wheat plant response rating: 0
[12]; [17]
  Soybean plant response rating: 0
[12]; [18]
  Soybean plant response rating: 0
[12]; [19]
  Plant response rating, Soybean: 0
[12]; [21]
  Soybean plant response rating: 1
[12]; [22]
  Soybean plant response rating: 0
[12]; [23]
  Plant response rating, Soybean: 1
[12]; [24]
  Soybean plant response rating: 1
[13]; [17]
  Velvetleaf plant response rating: 0
[13]; [18]
  Velvetleaf plant response rating: 0
[13]; [19]
  Plant response rating, Velvetleaf: 0
[13]; [21]
  Velvetleaf plant response rating: 0
[13]; [22]
  Velvetleaf plant response rating: 0
[13]; [23]
  Plant response rating, Velvetleaf: 0
[13]; [24]
  Velvetleaf plant response rating: 0
[14]; [17]
  B. signalgrass plant response rating: 0
[14]; [18]
  B. signalgrass plant response rating: 0
[14]; [19]
  Plant response rating, B. signalgrass: 0
[14]; [20]
  B. signalgrass plant response rating: 0
[14]; [21]
  B. signalgrass plant response rating: 0
[14]; [22]
  B. signalgrass plant response rating: 0
[14]; [23]
  Plant response rating, B. signalgrass: 0
[14]; [24]
  B. signalgrass plant response rating: 0
[15]; [17]
  Crabgrass plant response rating: 0
[15]; [18]
  Crabgrass plant response rating: 0
[15]; [19]
  Plant response rating, Crabgrass: 2
[15]; [21]
  Crabgrass plant response rating: 0
[15]; [22]
  Crabgrass plant response rating: 0
[15]; [23]
  Plant response rating, Crabgrass: 0
[15]; [24]
  Crabgrass plant response rating: 0
[16]; [17]
  Giant foxtail plant response rating: 2
[16]; [18]
  Giant foxtail plant response rating: 6
[16]; [19]
  Plant response rating, Giant foxtail: 6
[16]; [21]
  Giant foxtail plant response rating: 0
[16]; [22]
  Giant foxtail plant response rating: 5
[16]; [23]
  Plant response rating, Giant foxtail: 0
[16]; [24]
  Giant foxtail plant response rating: 0
